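48-hour exposure; five concentrations; linearly interpolated endpoints. GI50: concentration for 50% inhibition of growth. TGI marks complete inhibition of growth.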
What was measured:
Experiment in all cases: DTP human tumour cell line panel, 48 h
MCF7 breast = system: MCF7 breast
IGROV1 ovarian = system: IGROV1 ovarian
HL-60(TB) leukemia = system: HL-60(TB) leukemia
HS 578T breast = system: HS 578T breast
RPMI-8226 leukemia = system: RPMI-8226 leukemia
MDA-MB-435 = system: MDA-MB-435
ACHN renal = system: ACHN renal
OVCAR-5 ovarian = system: OVCAR-5 ovarian
UACC-62 melanoma = system: UACC-62 melanoma
SNB-19 CNS = system: SNB-19 CNS
NCI-H23 lung = system: NCI-H23 lung
786-0 renal = system: 786-0 renal
RXF 393 renal = system: RXF 393 renal
EKVX NSCLC = system: EKVX NSCLC
HCT-116 colon = system: HCT-116 colon
OVCAR-4 ovarian = system: OVCAR-4 ovarian
A498 renal = system: A498 renal
T-47D breast = system: T-47D breast
SK-MEL-5 melanoma = system: SK-MEL-5 melanoma
CCRF-CEM leukemia = system: CCRF-CEM leukemia
M14 melanoma = system: M14 melanoma
COLO 205 colon = system: COLO 205 colon
SNB-75 CNS = system: SNB-75 CNS
HOP-62 NSCLC = system: HOP-62 NSCLC
HT29 colon = system: HT29 colon
UACC-257 melanoma = system: UACC-257 melanoma
OVCAR-8 ovarian = system: OVCAR-8 ovarian
NCI-H460 lung = system: NCI-H460 lung
SF-295 CNS = system: SF-295 CNS
SF-268 CNS = system: SF-268 CNS
KM12 colon = system: KM12 colon
SK-OV-3 ovarian = system: SK-OV-3 ovarian
SR leukemia = system: SR leukemia
SK-MEL-28 melanoma = system: SK-MEL-28 melanoma
MOLT-4 leukemia = system: MOLT-4 leukemia
UO-31 renal = system: UO-31 renal
LOX IMVI melanoma = system: LOX IMVI melanoma
MDA-MB-231 breast = system: MDA-MB-231 breast
NCI-H522 lung = system: NCI-H522 lung
SF-539 CNS = system: SF-539 CNS
PC-3 prostate = system: PC-3 prostate
NCI/ADR-RES ovarian = system: NCI/ADR-RES ovarian
TK-10 renal = system: TK-10 renal
MALME-3M melanoma = system: MALME-3M melanoma
HOP-92 NSCLC = system: HOP-92 NSCLC
NCI-H226 lung = system: NCI-H226 lung
HCC-2998 colon = system: HCC-2998 colon
U251 CNS = system: U251 CNS
OVCAR-3 ovarian = system: OVCAR-3 ovarian
DU-145 prostate = system: DU-145 prostate
SW-620 colon = system: SW-620 colon
HCT-15 colon = system: HCT-15 colon
SK-MEL-2 melanoma = system: SK-MEL-2 melanoma
SN12C renal = system: SN12C renal
BT-549 breast = system: BT-549 breast
A549 NSCLC = system: A549 NSCLC

SMILES: CCCCCCCCN(CCCCCCCC)CC(O)c1cc(-c2ccccc2)nc2ccc(OC)cc12 (configuration not stated)
- GI50 (MCF7 breast): 38.9 µM
- TGI (MCF7 breast): > 100 µM
- GI50 (IGROV1 ovarian): > 100 µM
- TGI (IGROV1 ovarian): > 100 µM
- GI50 (HL-60(TB) leukemia): 18 µM
- TGI (HL-60(TB) leukemia): 52.2 µM
- GI50 (HS 578T breast): > 100 µM
- TGI (HS 578T breast): > 100 µM
- GI50 (RPMI-8226 leukemia): 10.3 µM
- TGI (RPMI-8226 leukemia): 44.3 µM
- GI50 (MDA-MB-435): 32.1 µM
- TGI (MDA-MB-435): > 100 µM
- GI50 (ACHN renal): > 100 µM
- TGI (ACHN renal): > 100 µM
- GI50 (OVCAR-5 ovarian): > 100 µM
- TGI (OVCAR-5 ovarian): > 100 µM
- GI50 (UACC-62 melanoma): 21.5 µM
- TGI (UACC-62 melanoma): > 100 µM
- GI50 (SNB-19 CNS): 54.7 µM
- TGI (SNB-19 CNS): > 100 µM
- GI50 (NCI-H23 lung): 43.4 µM
- TGI (NCI-H23 lung): > 100 µM
- GI50 (786-0 renal): > 100 µM
- TGI (786-0 renal): > 100 µM
- GI50 (RXF 393 renal): 43.7 µM
- TGI (RXF 393 renal): > 100 µM
- GI50 (EKVX NSCLC): > 100 µM
- TGI (EKVX NSCLC): > 100 µM
- GI50 (HCT-116 colon): 15.7 µM
- TGI (HCT-116 colon): 68.4 µM
- GI50 (OVCAR-4 ovarian): 51 µM
- TGI (OVCAR-4 ovarian): > 100 µM
- GI50 (A498 renal): > 100 µM
- TGI (A498 renal): > 100 µM
- GI50 (T-47D breast): 25.6 µM
- TGI (T-47D breast): > 100 µM
- GI50 (SK-MEL-5 melanoma): 34.4 µM
- TGI (SK-MEL-5 melanoma): > 100 µM
- GI50 (CCRF-CEM leukemia): 26.1 µM
- TGI (CCRF-CEM leukemia): > 100 µM
- GI50 (M14 melanoma): 20.3 µM
- TGI (M14 melanoma): 68.5 µM
- GI50 (COLO 205 colon): 22.1 µM
- TGI (COLO 205 colon): > 100 µM
- GI50 (SNB-75 CNS): > 100 µM
- TGI (SNB-75 CNS): > 100 µM
- GI50 (HOP-62 NSCLC): 30.4 µM
- TGI (HOP-62 NSCLC): > 100 µM
- GI50 (HT29 colon): 18.3 µM
- TGI (HT29 colon): > 100 µM
- GI50 (UACC-257 melanoma): > 100 µM
- TGI (UACC-257 melanoma): > 100 µM
- GI50 (OVCAR-8 ovarian): 32.2 µM
- TGI (OVCAR-8 ovarian): > 100 µM
- GI50 (NCI-H460 lung): > 100 µM
- TGI (NCI-H460 lung): > 100 µM
- GI50 (SF-295 CNS): > 100 µM
- TGI (SF-295 CNS): > 100 µM
- GI50 (SF-268 CNS): 28.7 µM
- TGI (SF-268 CNS): > 100 µM
- GI50 (KM12 colon): 79.9 µM
- TGI (KM12 colon): > 100 µM
- GI50 (SK-OV-3 ovarian): > 100 µM
- TGI (SK-OV-3 ovarian): > 100 µM
- GI50 (SR leukemia): 10.1 µM
- TGI (SR leukemia): 97.3 µM
- GI50 (SK-MEL-28 melanoma): 62.3 µM
- TGI (SK-MEL-28 melanoma): > 100 µM
- GI50 (MOLT-4 leukemia): 23.1 µM
- TGI (MOLT-4 leukemia): > 100 µM
- GI50 (UO-31 renal): 34.4 µM
- TGI (UO-31 renal): > 100 µM
- GI50 (LOX IMVI melanoma): 12.6 µM
- TGI (LOX IMVI melanoma): 34.7 µM
- GI50 (MDA-MB-231 breast): 11.1 µM
- TGI (MDA-MB-231 breast): > 100 µM
- GI50 (NCI-H522 lung): 53.4 µM
- TGI (NCI-H522 lung): > 100 µM
- GI50 (SF-539 CNS): 22.3 µM
- TGI (SF-539 CNS): 64.8 µM
- GI50 (PC-3 prostate): 47.7 µM
- TGI (PC-3 prostate): > 100 µM
- GI50 (NCI/ADR-RES ovarian): 16.3 µM
- TGI (NCI/ADR-RES ovarian): > 100 µM
- GI50 (TK-10 renal): > 100 µM
- TGI (TK-10 renal): > 100 µM
- GI50 (MALME-3M melanoma): > 100 µM
- TGI (MALME-3M melanoma): > 100 µM
- GI50 (HOP-92 NSCLC): 57.5 µM
- TGI (HOP-92 NSCLC): > 100 µM
- GI50 (NCI-H226 lung): > 100 µM
- TGI (NCI-H226 lung): > 100 µM
- GI50 (HCC-2998 colon): > 100 µM
- TGI (HCC-2998 colon): > 100 µM
- GI50 (U251 CNS): 27.8 µM
- TGI (U251 CNS): 96.2 µM
- GI50 (OVCAR-3 ovarian): 21.2 µM
- TGI (OVCAR-3 ovarian): 61.2 µM
- GI50 (DU-145 prostate): 37 µM
- TGI (DU-145 prostate): > 100 µM
- GI50 (SW-620 colon): 16.5 µM
- TGI (SW-620 colon): > 100 µM
- GI50 (HCT-15 colon): 23.2 µM
- TGI (HCT-15 colon): > 100 µM
- GI50 (SK-MEL-2 melanoma): 50.3 µM
- TGI (SK-MEL-2 melanoma): > 100 µM
- GI50 (SN12C renal): 29.7 µM
- TGI (SN12C renal): > 100 µM
- GI50 (BT-549 breast): 23.9 µM
- TGI (BT-549 breast): 64 µM
- GI50 (A549 NSCLC): > 100 µM
- TGI (A549 NSCLC): > 100 µM

Reference: PubChem BioAssay (NCI)
